According to the NIST ThermoML archive (doi:10.1021/acs.jced.5b00903):

Tests used:
[1] = surface light scattering
[2] = xn = mol fraction of the nth substance listed; conditions: surface light scattering

CC(C)CC(C)(C)C [2,2,4-trimethylpentane]
[1]
Conditions | surface tension liquid-gas [mN/m]
288.15 K | 19.14
298.15 K | 18.3
303.15 K | 17.9
308.15 K | 17.43
313.15 K | 17.09
318.15 K | 16.56
323.15 K | 16.2

CCO [ethanol]
[1]
Conditions | surface tension liquid-gas [mN/m]
288.15 K | 22.72
293.15 K | 22.31
298.15 K | 21.85
303.15 K | 21.41
308.15 K | 21.04
313.15 K | 20.62
318.15 K | 20.29

CCCCCCCO [heptan-1-ol]
[1]
Conditions | surface tension liquid-gas [mN/m]
298.15 K | 26.46
303.15 K | 25.93
308.15 K | 25.43
313.15 K | 24.95
318.15 K | 24.55
323.15 K | 24.03

CCCCCCC [heptane]
[1]
Conditions | surface tension liquid-gas [mN/m]
293.15 K | 20.12
298.15 K | 19.69
303.15 K | 19.13
308.15 K | 18.67
313.15 K | 18.1
318.15 K | 17.7

CCCCCCO [hexan-1-ol]
[1]
Conditions | surface tension liquid-gas [mN/m]
298.15 K | 25.56
303.15 K | 24.95
308.15 K | 24.65
313.15 K | 23.93
318.15 K | 23.58
323.15 K | 23.21

CCCCCCO [hexan-1-ol] + CC(C)CC(C)(C)C
surface tension liquid-gas [mN/m], [2]
Conditions | x2 = 0 | x2 = 0.1001 | x2 = 0.2 | x2 = 0.3001 | x2 = 0.4 | x2 = 0.5 | x2 = 0.6001 | x2 = 0.7001 | x2 = 0.7997 | x2 = 0.8998
298.15 K | 25.56 | 24.01 | 22.65 | 21.78 | 21.03 | 20.33 | 19.78 | 19.38 | 18.95 | 18.65
303.15 K | 24.95 | 23.31 | 22.03 | 21.17 | 20.44 | 19.76 | 19.25 | 18.88 | 18.47 | 18.22
308.15 K | 24.65 | 22.99 | 21.62 | 20.74 | 19.99 | 19.3 | 18.77 | 18.41 | 18 | 17.75
313.15 K | 23.93 | 22.3 | 20.9 | 20.05 | 19.34 | 18.69 | 18.21 | 17.9 | 17.54 | 17.37
318.15 K | 23.58 | 21.91 | 20.45 | 19.58 | 18.85 | 18.17 | 17.69 | 17.37 | 17.01 | 16.84
323.15 K | 23.21 | 21.43 | 19.99 | 19.11 | 18.38 | 17.71 | 17.24 | 16.94 | 16.6 | 16.47

CCCCCO [pentan-1-ol]
[1]
Conditions | surface tension liquid-gas [mN/m]
298.15 K | 25.29
303.15 K | 24.87
308.15 K | 24.46
313.15 K | 24.05
318.15 K | 23.65
323.15 K | 23.21

CCCCCO [pentan-1-ol] + CC(C)CC(C)(C)C
surface tension liquid-gas [mN/m], [2]
Conditions | x2 = 0 | x2 = 0.1004 | x2 = 0.2003 | x2 = 0.3 | x2 = 0.4 | x2 = 0.5 | x2 = 0.5999 | x2 = 0.6998 | x2 = 0.7999 | x2 = 0.8996
298.15 K | 25.29 | 23.81 | 22.53 | 21.7 | 20.97 | 20.3 | 19.77 | 19.38 | 18.94 | 18.64
303.15 K | 24.87 | 23.28 | 22.05 | 21.22 | 20.49 | 19.82 | 19.3 | 18.93 | 18.51 | 18.22
308.15 K | 24.46 | 22.83 | 21.56 | 20.71 | 19.98 | 19.3 | 18.79 | 18.42 | 18.01 | 17.75
313.15 K | 24.05 | 22.42 | 21.08 | 20.23 | 19.51 | 18.84 | 18.34 | 18 | 17.61 | 17.38
318.15 K | 23.65 | 21.99 | 20.58 | 19.71 | 18.97 | 18.3 | 17.79 | 17.45 | 17.07 | 16.85
323.15 K | 23.21 | 21.5 | 20.14 | 19.26 | 18.51 | 17.83 | 17.34 | 17.02 | 16.65 | 16.43

CCCO [propan-1-ol]
[1]
Conditions | surface tension liquid-gas [mN/m]
298.15 K | 23.31
303.15 K | 22.9
308.15 K | 22.52
313.15 K | 22.1
318.15 K | 21.68
323.15 K | 21.27

CCCO [propan-1-ol] + CC(C)CC(C)(C)C
[2], x2 = 0
Conditions | surface tension liquid-gas [mN/m]
298.15 K | 23.31
303.15 K | 22.9
308.15 K | 22.52
313.15 K | 22.1
318.15 K | 21.68
323.15 K | 21.27
